Test results as given in patent US20080221045A1, “Hepatic Function-Improving Agent” (Kabushiki Kaisha Hayashibara Seibutsu Kagaku Kenkyujo, priority 2004, published 2008).

Experiments:
[1] = tested on: hepatic functions; assay: Administration test of α-glucosyl-hesperidin on hamsters (cholesterol-supplemented feed), serum GOT and GPT; assay type: in vivo, golden hamsters; details: for Serum GOT / Serum GPT: 0.25 mmole/kg/day by stomach sonde, 5 weeks, last 3 weeks feed with 1% cholesterol, average ± SD; for Serum GOT: distilled water control 171 ± 46, before 46 ± 8; for Serum GPT: distilled water control 418 ± 106, before 81 ± 18; for serum levels of GOT and GPT compared with the distilled water group (control 1): 0.25 mmole/kg/day
Method: The animal experiment using hamsters was performed to investigate the influences of the intake of α-glucosyl-hesperidin on hepatic functions.
A group of five golden hamsters of five weeks old was fed on liberal amount of “NMF Lab Animal Diet Powder” (produced by Oriental Yeast Co., Ltd.) with the administration of “αG-HESPERIDIN PS®” (a powdery α-glucosyl-hesperidin containing 82.8% of α-glucosyl-hesperidin, commercialized by Hayashibara Shoji, Inc.) dissolved in distilled water. α-Glucosyl-hesperidin was administered to the hamsters through a stomach sonde at a dose of 0.25 mmole (193 mg)/kg/body weight every day. After two-week administrations of α-glucosyl-hesperidin, the hamsters were fed for additional three weeks in the same way as described above except that their feed was supplemented with 1% by weight of cholesterol. At four hours after the final administrations, the hamsters were anesthetized and under went laparotomy, and their large-venous blood samples were taken. After the separation of the hamsters' serums by a conventional method, the levels of GOT and GPT were measured. As the control 1, another group was fed and its blood samples were taken in the same way except that distilled water instead of α-glucosyl-hesperidin was administered to the hamsters. As the control 2, a third group was fed and their blood samples were taken in the same way except that hesperidin (a regent grade specimen, commercialized by Wako Pure Chemical Industries, Ltd.) instead of α-glucosyl-hesperidin suspended in distilled water was administered to the hamsters at a dose of 0.25 mmole (153 mg)/kg/body weight. The other group was fed on liberal amount of “NMF Lab Animal Diet Powder” with no administration of the test articles and their blood samples were taken in the same way as describe above, and the serum levels of GOT and GPT were measured to obtain the data before the administrations.

[2] = mammals including humans with an elevated TG level; Yamada et al. 2003, Miwa et al. 2004; cited from earlier work

Compound	Serum GOT [1]	Serum GPT [1]	serum levels of GOT and GPT compared with the distilled water group (control 1) ([1]; hamsters)	effect for keeping hepatic-function indexes at a lower level, compared with hesperidin ([1]; hamsters, equal molar dose 0.25 mmole/kg/day)	effect on blood triglyceride (TG) level [2]
COc1ccc(C2CC(=O)c3c(O)cc(O[C@@H]4OC(CO[C@@H]5OC(C)[C@H](O)C(O)C5O)[C@@H](COC[C@H]5OC(CO)[C@@H](O)C(O)C5O)C(O)C4O)cc3O2)cc1O (stereo partly drawn) [α-Glucosyl-hesperidin, α-glucosyl-hesperidin]	66 ± 44 IU/L	226 ± 74 IU/L	kept lower	greater effect than that of hesperidin	marked effect of reducing blood triglyceride
COc1ccc([C@@H]2CC(=O)c3c(O)cc(O[C@@H]4O[C@H](CO[C@@H]5O[C@@H](C)[C@H](O)[C@@H](O)[C@H]5O)[C@@H](O)[C@H](O)[C@H]4O)cc3O2)cc1O [Hesperidin, hesperidin, reference compound]	101 ± 30 IU/L	298 ± 76 IU/L	kept lower	–	–
